The values below come from patent US9650403B2, “Platinum (II) compound, preparation method therefor, and pharmaceutical composition and application thereof” (SHANGHAI INSTITUTE OF PHARMACEUTICAL INDUSTRY, priority 2013, dated 2017).

A word on the IC50: it is the concentration needed to halve the response being measured. High values mean a need for much substance, low ones inhibition by little substance.

Series [1] can be described thus: body weight of ICR mice with transplanted S180 tumor. The format is in vivo. The method, then: (§1) 32 ICR mice, male, weight 18-20 g, were supplied by Sippr/Bk Laboratory Animals Ltd, certification: SCXK (shanghai) 2008-2016.
(§2) The ascites of two vigorous growing ICR mice with S180 ascites tumor was extracted under a sterile condition, diluted 6 times with saline water, axilla subcutaneously inoculated with a dosage of 0.2 ml per mouse. The mice were randomly divided into four groups the next day, 8 for each group.
(§3) The groups were blank control group, SIPI-601 60 mg/kg iv group (administered once every three days), SIPI-601 120 mg/kg iv group (administered once every six days), Oxaliplatin 9 mg/kg iv group (administered once every other day).
(§4) The mice were administered the second day after inoculation. After the treatment, the survived animals were euthanatized, the tumors were taken and weighed to calculate anti-tumor rate.

The subject of series [2] is transplanted S180 tumor. The series is described as follows: anti-tumor rate in ICR mice with transplanted S180 tumor. The format is in vivo. The procedure: The model of ICR mice with transplanted 5180 sarcoma in vivo was used to determine the anticancer effect of the compound. Specific steps are as follows:
Samples: cis-3-hydroxy-acrylic acid diammine platinum (II), serial number: SIPI-601.
Positive control: Oxaliplatin for injection, Jiangsu Hengrui Medicine Co., Ltd, lot number: 13082811, 50 mg per bottle.
Samples: SIPI-601, which was dissolved by a 10% glucose injection.
Positive control: Oxaliplatin for injection, which was dissolved by a 10% glucose injection.
as §1
Tumor cell trains: two ICR mice with S180 ascites tumor, passage cultured by pharmacological office, Shanghai State Institute of Pharmaceutical Industry (SIPI).
as §2, §3, §4

Series [3] deals with human oral cancer cell strain KB. The series can be described thus: MTT cytotoxicity on human tumor cell strains in vitro. Type of series: cell-based. Conditions: 48 hours. The procedure: (§5) MTT method was employed to test the cytotoxic effect caused by the compound on human tumor cell stains in vitro. Specific steps are as follows:
(§6) The tumor cells (human poorly differentiated gastric cancer cell stain BGC-823, human breast cancer cell strain Bcap37, human oral cancer cell strain KB) was cultured in a 10% calf serum, inoculated into a 96-well plate (2×10^5 cells per well) at 37° C. in an incubator with 5% CO2. The cis-3-hydroxy-acrylic acid diammine platinum (II) was dissolved in DMSO to obtain a solution with a concentration of 10 mg/ml. The solution was diluted to the required concentration with a phosphate buffer, and then added into the wells of the 96-well plate respectively, each concentration was for two wells, 10 μl per well, therefore, each concentration has two parallel tests. DMSO was diluted accordingly in a gradient manner and added into the wells of the 96-well plate as controls.
(§7) After the 96-well plate was kept at 37° C. in the incubator with 5% CO2 for 48 hours, 20 μl 5 mg/ml MTT solution was added into per well. Then the 96-well plate were further kept for 3-4 hours in the incubator at the same temperature. 100 μl solvent was added into per well and the 96-well plate was kept warm in the incubator overnight to make the generated formazan crystals dissolve sufficiently. The light absorption value at 492 nm was determined.
(§8) A relative survival rate of cells was calculated according to the light absorption value after the treatment of the compound. The calculation formula is as follows: […]
(§9) The IC50 of the compound against each kind of tumor cells was calculated though software.

Series [4] has as its system human breast cancer cell strain Bcap37. The description is as above. Type of series: cell-based. Conditions: 48 hours. The method, then: as §5, §6, §7, §8, §9
For series [5], the system named is human poorly differentiated gastric cancer cell stain BGC-823. The series is described as above. The format is cell-based. The settings on record: BGC-823, MTT, 48 hours. The method, then: as §5, §6, §7, §8, §9
The nature of series [6]: water-solubility at room temperature.
Where [7] appears, read: 9 mg/kg iv, once every other day.
[8] abbreviates: 60 mg/kg iv, once every three days.
Setting [9] is: 120 mg/kg iv, once every six days.

For the molecule `O=C1[O][Pt]2([NH][C@@H]3CCCC[C@H]3[NH]2)[O]C1=O` [Oxaliplatin, reference compound], the “The final body weight after the removal of tumor” value in series [1] (setting [7]) was found to be 19.92 g. Also, the The anti-tumor rate in series [2] (setting [7]) came to 62.42%.
On to “cis-3-hydroxy-acrylic acid diammine platinum (II) [SIPI-601]”, for which the “The final body weight after the removal of tumor” value in series [1] (setting [8]) came to 22.46 g; in series [1] (setting [9]), 20.34 g. Further, the The anti-tumor rate in series [2] (setting [8]) amounted to 64.39%; in series [2] (setting [9]), 66.83%. Moreover, the IC50 in series [3] turned out to be 33.94 µg/mL; in series [4], 21.58 µg/mL; in series [5] it was 2.28 µg/mL. In series [6], the water-solubility entry is listed as “greater than 25 mg/mL”.
